Legend:
Mu-type opioid receptor = Mu-type opioid receptor (Homo sapiens, UniProt P35372); assay: DRUGMATRIX: Opiate mu (OP3, MOP) radioligand binding (ligand: [3H] Diprenorphine); type: cell membranes, CHO-K1, Membrane; details: Not Active = under 50% inhibition at 10 µM
Insulin receptor = Insulin receptor (Rattus norvegicus, UniProt P15127); type: cell membranes, Wistar, Liver, Membrane; also: in other assays of this panel Not Active means under 50% inhibition at 10 µM
D(4) dopamine receptor = target: T1, D(4) dopamine receptor (Homo sapiens, UniProt P21917); assay: DRUGMATRIX: Dopamine D4.2 radioligand binding (ligand: [3H] Spiperone); type: cell membranes, CHO-K1, Membrane; details: cho-k1; Not Active = under 50% inhibition at 10 µM
T1 sequence (P21917 whole entry): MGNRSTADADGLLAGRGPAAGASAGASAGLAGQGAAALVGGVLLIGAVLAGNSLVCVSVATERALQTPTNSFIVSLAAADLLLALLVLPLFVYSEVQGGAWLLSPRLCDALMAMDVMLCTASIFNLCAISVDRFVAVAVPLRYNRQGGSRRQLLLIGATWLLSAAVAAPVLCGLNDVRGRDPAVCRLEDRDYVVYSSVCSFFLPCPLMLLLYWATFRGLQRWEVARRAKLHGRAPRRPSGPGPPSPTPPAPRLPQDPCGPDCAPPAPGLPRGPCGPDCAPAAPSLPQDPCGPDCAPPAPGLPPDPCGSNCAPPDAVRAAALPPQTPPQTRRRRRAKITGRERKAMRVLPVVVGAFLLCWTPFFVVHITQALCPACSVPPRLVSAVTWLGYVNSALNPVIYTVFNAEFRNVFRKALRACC

[1] = DRUGMATRIX: Glutamate, AMPA radioligand binding (ligand: [3H] AMPA); type: cell membranes, Rattus norvegicus, Wistar, Cerebral cortex, Membrane; details: Not Active = under 50% inhibition at 10 µM
[2] = target: Voltage-gated inwardly rectifying potassium channel KCNH2 (Homo sapiens, UniProt Q12809); details: hek293; also: in other assays of this panel Not Active means under 50% inhibition at 10 µM
[3] = target: T2, Muscarinic acetylcholine receptor M4 (Homo sapiens, UniProt P08173); type: cell membranes, CHO-K1, Membrane; details: cho-k1; also: in other assays of this panel Not Active means under 50% inhibition at 10 µM
T2 sequence (P08173 whole entry): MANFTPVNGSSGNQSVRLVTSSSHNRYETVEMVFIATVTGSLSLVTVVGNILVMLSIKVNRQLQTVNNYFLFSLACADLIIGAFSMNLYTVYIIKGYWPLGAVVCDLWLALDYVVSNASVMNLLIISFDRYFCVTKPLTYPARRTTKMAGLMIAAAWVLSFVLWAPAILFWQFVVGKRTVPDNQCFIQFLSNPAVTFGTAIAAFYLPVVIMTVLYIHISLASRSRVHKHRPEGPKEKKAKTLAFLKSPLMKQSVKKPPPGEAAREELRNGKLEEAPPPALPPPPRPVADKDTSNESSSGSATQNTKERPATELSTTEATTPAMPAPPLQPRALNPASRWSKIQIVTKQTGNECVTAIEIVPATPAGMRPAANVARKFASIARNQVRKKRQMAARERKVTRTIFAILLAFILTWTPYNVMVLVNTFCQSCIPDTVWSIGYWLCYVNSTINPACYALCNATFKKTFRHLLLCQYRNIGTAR

[4] = DRUGMATRIX: Serotonin (5-Hydroxytryptamine) 5-HT3 radioligand binding (ligand: [3H] GR-65630); type: cell membranes, Membrane; details: hek293; Not Active = under 50% inhibition at 10 µM
Cytochrome P450 3A4 = Cytochrome P450 3A4 (Homo sapiens, UniProt P08684); details: bti-tn-5b1-4; also: in other assays of this panel Not Active means under 50% inhibition at 10 µM
Cytochrome P450 3A4, sequence (P08684 whole entry): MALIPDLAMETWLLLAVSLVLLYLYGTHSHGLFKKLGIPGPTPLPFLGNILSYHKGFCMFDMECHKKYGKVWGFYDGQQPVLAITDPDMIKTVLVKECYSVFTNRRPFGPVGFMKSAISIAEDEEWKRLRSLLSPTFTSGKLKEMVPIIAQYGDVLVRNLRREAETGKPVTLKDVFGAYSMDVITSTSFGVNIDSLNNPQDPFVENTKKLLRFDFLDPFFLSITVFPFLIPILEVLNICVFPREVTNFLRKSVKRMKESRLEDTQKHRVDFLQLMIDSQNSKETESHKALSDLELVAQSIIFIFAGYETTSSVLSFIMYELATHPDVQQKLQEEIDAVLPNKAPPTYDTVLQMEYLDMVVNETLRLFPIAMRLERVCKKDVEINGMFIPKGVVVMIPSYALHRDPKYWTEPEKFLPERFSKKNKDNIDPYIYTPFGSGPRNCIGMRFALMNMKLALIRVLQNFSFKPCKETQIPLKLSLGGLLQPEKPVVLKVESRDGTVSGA

Voltage-gated inwardly rectifying potassium channel KCNH2, sequence (Q12809 whole entry): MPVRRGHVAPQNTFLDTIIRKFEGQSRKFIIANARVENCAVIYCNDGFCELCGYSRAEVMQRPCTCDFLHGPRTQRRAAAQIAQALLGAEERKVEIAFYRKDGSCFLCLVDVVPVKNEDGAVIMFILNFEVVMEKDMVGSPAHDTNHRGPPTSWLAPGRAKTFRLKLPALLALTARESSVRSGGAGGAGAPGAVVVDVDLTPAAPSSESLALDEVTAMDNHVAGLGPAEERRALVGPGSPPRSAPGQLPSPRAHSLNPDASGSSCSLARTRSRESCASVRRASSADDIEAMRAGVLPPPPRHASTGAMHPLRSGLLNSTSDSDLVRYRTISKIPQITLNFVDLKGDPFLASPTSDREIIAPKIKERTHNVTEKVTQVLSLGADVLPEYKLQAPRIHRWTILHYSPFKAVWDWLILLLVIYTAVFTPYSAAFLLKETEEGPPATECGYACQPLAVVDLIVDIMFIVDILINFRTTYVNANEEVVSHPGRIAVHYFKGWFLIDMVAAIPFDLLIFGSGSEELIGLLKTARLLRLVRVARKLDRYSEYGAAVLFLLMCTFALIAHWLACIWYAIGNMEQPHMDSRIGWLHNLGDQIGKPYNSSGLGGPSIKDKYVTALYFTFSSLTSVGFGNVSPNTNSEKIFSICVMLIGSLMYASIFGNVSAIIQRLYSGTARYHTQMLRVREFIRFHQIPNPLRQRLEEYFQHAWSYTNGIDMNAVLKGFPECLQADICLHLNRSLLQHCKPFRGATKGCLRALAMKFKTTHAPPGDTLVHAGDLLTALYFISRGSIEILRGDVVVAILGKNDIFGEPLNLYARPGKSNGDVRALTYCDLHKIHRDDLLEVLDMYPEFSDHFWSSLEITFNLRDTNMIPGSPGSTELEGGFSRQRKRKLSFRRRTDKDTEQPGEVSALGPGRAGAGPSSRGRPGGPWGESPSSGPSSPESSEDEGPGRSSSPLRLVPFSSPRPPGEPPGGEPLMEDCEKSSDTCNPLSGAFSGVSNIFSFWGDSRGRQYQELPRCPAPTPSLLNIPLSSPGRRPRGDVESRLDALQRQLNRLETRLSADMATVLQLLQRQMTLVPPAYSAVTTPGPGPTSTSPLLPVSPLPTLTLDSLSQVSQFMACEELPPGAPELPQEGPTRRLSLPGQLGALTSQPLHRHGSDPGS
Insulin receptor, sequence (P15127 27-759 limits assumed): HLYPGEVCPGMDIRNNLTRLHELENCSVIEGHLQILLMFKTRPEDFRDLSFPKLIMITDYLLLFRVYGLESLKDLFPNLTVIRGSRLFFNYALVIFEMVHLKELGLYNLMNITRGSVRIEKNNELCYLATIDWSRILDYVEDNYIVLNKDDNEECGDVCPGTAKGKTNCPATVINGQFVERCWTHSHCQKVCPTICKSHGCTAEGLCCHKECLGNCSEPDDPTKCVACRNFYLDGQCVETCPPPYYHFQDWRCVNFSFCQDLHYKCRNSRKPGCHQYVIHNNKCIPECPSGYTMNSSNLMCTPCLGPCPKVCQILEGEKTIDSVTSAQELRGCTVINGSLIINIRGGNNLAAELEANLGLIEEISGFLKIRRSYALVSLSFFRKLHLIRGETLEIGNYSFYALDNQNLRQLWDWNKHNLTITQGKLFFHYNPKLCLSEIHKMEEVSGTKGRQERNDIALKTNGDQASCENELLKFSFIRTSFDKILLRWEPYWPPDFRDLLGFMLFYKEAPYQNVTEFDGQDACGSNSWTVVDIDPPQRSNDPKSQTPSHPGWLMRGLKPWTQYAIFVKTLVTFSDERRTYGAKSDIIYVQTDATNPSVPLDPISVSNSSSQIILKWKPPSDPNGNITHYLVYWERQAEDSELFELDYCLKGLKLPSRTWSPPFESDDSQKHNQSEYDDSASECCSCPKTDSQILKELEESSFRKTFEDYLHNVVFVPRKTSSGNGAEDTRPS
Insulin receptor, sequence (P15127 764-1383 limits assumed): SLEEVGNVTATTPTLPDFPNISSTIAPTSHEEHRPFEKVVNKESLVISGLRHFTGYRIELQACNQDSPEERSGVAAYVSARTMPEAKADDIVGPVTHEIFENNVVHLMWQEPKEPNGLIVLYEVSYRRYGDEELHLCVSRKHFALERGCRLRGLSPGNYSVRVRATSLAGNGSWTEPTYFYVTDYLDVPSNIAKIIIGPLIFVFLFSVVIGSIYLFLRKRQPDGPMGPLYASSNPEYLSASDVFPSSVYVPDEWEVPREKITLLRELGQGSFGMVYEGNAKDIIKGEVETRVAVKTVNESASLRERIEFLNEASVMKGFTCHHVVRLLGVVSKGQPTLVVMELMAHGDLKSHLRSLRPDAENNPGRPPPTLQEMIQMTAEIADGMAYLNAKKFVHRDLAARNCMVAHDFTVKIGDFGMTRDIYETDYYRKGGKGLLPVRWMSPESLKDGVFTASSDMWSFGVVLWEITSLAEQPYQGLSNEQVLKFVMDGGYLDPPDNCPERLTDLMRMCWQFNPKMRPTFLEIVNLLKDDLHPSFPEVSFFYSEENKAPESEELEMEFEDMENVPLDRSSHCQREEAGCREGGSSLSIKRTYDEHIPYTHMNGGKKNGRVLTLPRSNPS
Mu-type opioid receptor, sequence (P35372 whole entry): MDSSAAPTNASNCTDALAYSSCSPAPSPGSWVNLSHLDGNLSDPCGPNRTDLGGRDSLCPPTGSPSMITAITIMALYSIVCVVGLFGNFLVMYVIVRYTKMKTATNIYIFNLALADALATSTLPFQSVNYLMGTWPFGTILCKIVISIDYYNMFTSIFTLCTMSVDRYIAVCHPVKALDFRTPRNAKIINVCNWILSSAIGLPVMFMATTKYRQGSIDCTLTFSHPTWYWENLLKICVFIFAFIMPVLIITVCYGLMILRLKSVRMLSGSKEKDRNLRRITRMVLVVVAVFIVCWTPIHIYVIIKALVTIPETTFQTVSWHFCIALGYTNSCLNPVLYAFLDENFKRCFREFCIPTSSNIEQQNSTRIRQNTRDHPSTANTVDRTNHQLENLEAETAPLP

CNC(=C[N+](=O)[O-])NCCSCc1csc(CN(C)C)n1 [NIZATIDINE]
IC50 (Mu-type opioid receptor; cho-k1): Not Active | IC50 (Insulin receptor): Not Active | IC50 (D(4) dopamine receptor): Not Active | IC50 [1]: Not Active | Ki [1]: Not Active | IC50 [2]: Not Active | Ki [2]: Not Active | IC50 [3]: Not Active | IC50 [4]: Not Active | Ki [4]: Not Active | IC50 (Cytochrome P450 3A4): Not Active | Ki (Cytochrome P450 3A4): Not Active

N=C(N)N/N=C/c1c(Cl)cccc1Cl [GUANABENZ]
IC50 (Mu-type opioid receptor; cho-k1): Not Active | IC50 (Insulin receptor): Not Active | IC50 (D(4) dopamine receptor): Not Active | IC50 [1]: Not Active | Ki [1]: Not Active | IC50 [2]: Not Active | Ki [2]: Not Active | IC50 [3]: Not Active | IC50 [4]: Not Active | Ki [4]: Not Active | IC50 (Cytochrome P450 3A4): Not Active | Ki (Cytochrome P450 3A4): Not Active

COc1ccc2cc(CCC(C)=O)ccc2c1 [NABUMETONE]
IC50 (Mu-type opioid receptor; cho-k1): Not Active | IC50 (Insulin receptor): Not Active | IC50 (D(4) dopamine receptor): Not Active | IC50 [1]: Not Active | Ki [1]: Not Active | IC50 [2]: Not Active | Ki [2]: Not Active | IC50 [3]: Not Active | IC50 [4]: Not Active | Ki [4]: Not Active | IC50 (Cytochrome P450 3A4): Not Active | Ki (Cytochrome P450 3A4): Not Active

CC(C(=O)O)c1ccc(CC2CCCC2=O)cc1 (stereo unspecified) [LOXOPROFEN]
IC50 (Mu-type opioid receptor; cho-k1): Not Active | IC50 (Insulin receptor): Not Active | IC50 (D(4) dopamine receptor): Not Active | IC50 [1]: Not Active | Ki [1]: Not Active | IC50 [2]: Not Active | Ki [2]: Not Active | IC50 [3]: Not Active | IC50 [4]: Not Active | Ki [4]: Not Active | IC50 (Cytochrome P450 3A4): Not Active | Ki (Cytochrome P450 3A4): Not Active

CCCCCC[C@H]1C(=O)O[C@H](C)[C@H](NC(=O)c2cccc(NC=O)c2O)C(=O)O[C@@H](C)[C@@H]1OC(=O)CC(C)C [ANTIMYCIN A]
IC50 (Mu-type opioid receptor; cho-k1): Not Active | IC50 (Insulin receptor): Not Active | IC50 (D(4) dopamine receptor): Not Active | IC50 [1]: Not Active | Ki [1]: Not Active | IC50 [2]: Not Active | Ki [2]: Not Active | IC50 [3]: Not Active | IC50 [4]: Not Active | Ki [4]: Not Active | IC50 (Cytochrome P450 3A4): Not Active | Ki (Cytochrome P450 3A4): Not Active

O=c1cc(-c2ccccc2)oc2ccc3ccccc3c12 [BETA-NAPHTHOFLAVONE]
IC50 (Mu-type opioid receptor; cho-k1): Not Active | IC50 (Insulin receptor): Not Active | IC50 (D(4) dopamine receptor): Not Active | IC50 [1]: Not Active | Ki [1]: Not Active | IC50 [2]: Not Active | Ki [2]: Not Active | IC50 [3]: Not Active | IC50 [4]: Not Active | Ki [4]: Not Active | IC50 (Cytochrome P450 3A4): Not Active | Ki (Cytochrome P450 3A4): Not Active

CC(=O)O[C@]1(C(C)=O)CC[C@H]2[C@@H]3C=C(Cl)C4=CC(=O)[C@@H]5C[C@@H]5[C@]4(C)[C@H]3CC[C@@]21C [CYPROTERONE ACETATE]
Ki (Mu-type opioid receptor): 886 nM | IC50 (Mu-type opioid receptor; read-out: IC50): 2180 nM | IC50 (Insulin receptor): Not Active | IC50 (D(4) dopamine receptor): Not Active | IC50 [1]: Not Active | Ki [1]: Not Active | IC50 [2]: Not Active | Ki [2]: Not Active | IC50 [3]: Not Active | IC50 [4]: Not Active | Ki [4]: Not Active | IC50 (Cytochrome P450 3A4): Not Active | Ki (Cytochrome P450 3A4): Not Active

CCN[C@@H](C)Cc1cccc(C(F)(F)F)c1 [DEXFENFLURAMINE]
IC50 (Mu-type opioid receptor; cho-k1): Not Active | IC50 (Insulin receptor): Not Active | IC50 (D(4) dopamine receptor): Not Active | IC50 [1]: Not Active | Ki [1]: Not Active | IC50 [2]: Not Active | Ki [2]: Not Active | IC50 [3]: Not Active | IC50 [4]: Not Active | Ki [4]: Not Active | IC50 (Cytochrome P450 3A4): Not Active | Ki (Cytochrome P450 3A4): Not Active

Nn1nnc2ccccc21
IC50 (Mu-type opioid receptor; cho-k1): Not Active | IC50 (Insulin receptor): Not Active | IC50 (D(4) dopamine receptor): Not Active | IC50 [1]: Not Active | Ki [1]: Not Active | IC50 [2]: Not Active | Ki [2]: Not Active | IC50 [3]: Not Active | IC50 [4]: Not Active | Ki [4]: Not Active | IC50 (Cytochrome P450 3A4): Not Active | Ki (Cytochrome P450 3A4): Not Active

O=C(O)Cc1ccc(-c2ccccc2)cc1 [FELBINAC]
IC50 (Mu-type opioid receptor; cho-k1): Not Active | IC50 (Insulin receptor): Not Active | IC50 (D(4) dopamine receptor): Not Active | IC50 [1]: Not Active | Ki [1]: Not Active | IC50 [2]: Not Active | Ki [2]: Not Active | IC50 [3]: Not Active | IC50 [4]: Not Active | Ki [4]: Not Active | IC50 (Cytochrome P450 3A4): Not Active | Ki (Cytochrome P450 3A4): Not Active
